# Measured values reported in patent US20240401101A1, “A LIVE CELL ASSAY TO DETERMINE PERMEABILITY OF TEST MOLECULES TO AND/OR WITHIN THE PEPTIDOGLYCAN SCAFFOLD OF BACTERIA CELLS” (priority 2021, published 2024).
# Key:
# [1] = tested on: M. smegmatis mc^2 155; experiment: Ldt inhibition with meropenem (incorporation of TetD); format: cell-based, Mycobacterium smegmatis; settings: 25 μM TetD, then Fl-az
# Procedure: Ldt inhibition with meropenem. M. smegmatis mc^2 155 was inoculated from the glycerol stock by 1 to 1000 dilution to the according media and grown for 24 hours until 0.5-0.6 OD. 25 μM DBCOtetra were added to the media, and the cells were aliquoted to a 96-well culture plate with different concentration of meropenem described in the main text, in triplicate respectively. The cells were then grown overnight to achieve stationary phase. The cells were harvested and spun down for 2 min at 3000 g, washed with PBST two times and resuspended in PBST. To a 96-well plate added 100 uL cells pre well with 50 μM FAM-N3 accordingly transferred from the culture plate. The plate was incubated in 37° C. for 1 h and spun down for 2 min at 3000 g. The supernatant was decanted, and the pellets were washed with PBST for 2 times and fixed with 4% formaldehyde for 15 mins. The samples were then analyzed by Attune™ NxT Acoustic Focusing Cytometer.
# [2] = tested on: WT S. aureus (ATCC 25923); experiment: Flow cytometry of D-cystine tagged S. aureus treated with Mal-pegn-Fl and Mal-pron-Fl accessibility probes, with or without tunicamycin; format: cell-based, Staphylococcus aureus; settings: 0.001-0.1 μg/mL tunicamycin, 25 μM Mal-Fl
# Procedure: (§1) Flow cytometry analysis of S. aureus strains treated with Mal-pegn-Fl and Mal-pron-Fl libraries. LB media containing 1 mM of D-cystine were prepared. S. aureus ATCC 25923, S. aureus ATCC 25923 supplemented with 0.1 μg/mL tunicamycin, S. aureus ΔtarO supplemented with 150 μg/mL spectinomycin, USA300, or S. aureus SCO1 cells from overnight cultures were added to the medium (1:100 dilution) and allowed to grow overnight at 37° C. with shaking at 250 rpm. The cells were harvested at 4000 rpm and treated with 5 mM DTT at the original culture volume for 5 minutes, to reverse any thiol oxidation that may have occurred. The cells were harvested at 4000 rpm and washed twice at the original culture volume with 1×PBS to remove residual DTT. Each strain was then treated with both libraries, Mal-pegn-Fl and Mal-pron-Fl, in parallel. All library members were used at a 25 μM concentration for 30 minutes at 37° C. and protected from light. The samples were subsequently harvested at 4000 rpm and washed three times with 1×PBS followed by fixation with 2% formaldehyde in 1×PBS for 30 minutes. The cells were washed once more to remove formaldehyde and then analyzed using the Attune NxT flow cytometer as described above.
# (§2) Tunicamycin scan. […] The cells were washed once more to remove formaldehyde and then analyzed using the Attune NxT flow cytometer as described above.
# [3] = tested on: S. aureus (ΔtarO); experiment: Flow cytometry of D-cystine tagged WTA deletion strain treated with maleimide accessibility probes; format: cell-based, Staphylococcus aureus; settings: 0.1 μg/mL tunicamycin, 25 μM Mal-Fl
# Procedure: as §1, §2
# [4] = tested on: M. smegmatis mc^2 155; experiment: Example IV: metabolic PG labeling of Msm with DBCO tags followed by azide fluorophore, flow cytometry; format: cell-based, Mycobacterium smegmatis; settings: for cellular fluorescence with azide-modified fluorophore in cells pre-labeled with TetD: 25 μM TetD, fluorophore 1 h at 37° C.
# Procedure: General method for bacterial peptidoglycan modification. M. smegmatis strains was inoculated from the glycerol stock to the according media and grown for 24 hours until 0.5-0.6 OD, tetrapeptide probes were added to the media and the cells were grown overnight to achieve stationary phase. The cells were harvested the next day and spun down for 2 min at 3000 g, washed with phosphate buffered saline with tween80 (PBST, PBS with 0.05% tween 80) two times and resuspended in PBST to yield DBCO-modified M. smegmatis cells for further labeling and other experiments.
# (§3) DBCOtetra compared with stereo control and single amino acid DBCO. M. smegmatis mc^2 155 was inoculated from stationary phase in 1:100 dilution to a fresh 7H9 media with ADC. 25 μM Dap-DBCO, DBCOtetra or DBCOtera(L) were added to the culture tubes respectively, and the cells were grown for 36-40 hours until stationary phase. The cells were harvested and spun down for 2 min at 3000 g, washed with PBST two times and resuspended in PBST. To a 96-well plate added 100 μL cells pre well with 50 μM FAM-N3 in triplicate. The plate was incubated in 37° C. for 1 h and spun down for 2 min at 3000 g. The supernatant was decanted, and the pellets were washed with PBST for 2 times and fixed with 4% formaldehyde for 15 mins. The samples were then analyzed by Attune™ NxT Acoustic Focusing Cytometer.
# as §3, with “Confirm for click chemistry on PG.” for “DBCOtetra compared with stereo control and single amino acid DBCO.”, “μM” for “μM Dap-DBCO,”, “FL-tetra” for “DBCOtera(L)”, “uL” for “μL”, “FAM-N3 or 5-carboxy fluorescein accordingly” for “FAM-N3”
# as §3, with “Different concentrations of DBCOtetra.” for “DBCOtetra compared with stereo control and single amino acid DBCO.”, “ADC. 5 μM, 10 μM or” for “ADC.”, “μM” for “μM Dap-DBCO,”, “DBCOtetra” for “DBCOtetra or DBCOtera(L)”, “1h” for “1 h”
# Different concentration of FAM-N3 and different time. M. smegmatis mc^2 155 was inoculated from stationary phase in 1:100 dilution to a fresh 7H9 media with ADC. 25 μM DBCOtetra were added to the culture tubes, and the cells were grown for 36-40 hours until stationary phase. The cells were harvested and spun down for 2 min at 3000 g, washed with PBST two times and resuspended in PBST. To a 96-well plate added 100 μL cells pre well with different concentration of FAM-N3 described in the main text, 9 wells each. […] The samples were then analyzed by Attune™ NxT Acoustic Focusing Cytometer. […]
# [5] = tested on: S. aureus (ΔclpX); experiment: DBCO-pegn-Fl library in clpX deletion strain; format: cell-based, Staphylococcus aureus; settings: 1 mM D-LysAz, 25 μM probe, versus WT SA546
# Procedure: TSB media containing 1 mM of D-LysAz were prepared. S. aureus SA546, ΔclpX, or ΔclpXΔltaS cells from overnight cultures were added to the medium (1:100 dilution) and allowed to grow overnight at 37° C. with shaking at 250 rpm. The cells were harvested at 4000 rpm and washed three times at the original culture volume with 1×PBS. Each strain was then treated with the DBCO-pegn-Fl library. All library members were used at a 25 μM concentration for 30 minutes at 37° C. and protected from light. The samples were subsequently harvested at 4000 rpm and washed three times with 1×PBS followed by fixation with 2% formaldehyde in 1×PBS for 30 minutes. The cells were washed once more to remove formaldehyde and then analyzed using the Attune NxT flow cytometer as described above.
# [6] = tested on: S. aureus (ATCC 25923); experiment: Flow cytometry of S. aureus treated with thiol PG analogs / cystine enantiomers, then Mal-Fl; format: cell-based, Staphylococcus aureus; settings: DTT 5 mM, 25 μM Mal-Fl
# Procedure: Flow cytometry analysis of S. aureus treated with thiol analogue panel. LB media containing 1 mM of each respective thiol analogue or dimethyl sulfoxide (DMSO) were prepared. S. aureus ATCC 25923 cells from an overnight culture were added to the medium (1:100 dilution) and allowed to grow overnight at 37° C. with shaking at 250 rpm. The cells were harvested at 4000 rpm and treated with 5 mM dithiothreitol (DTT) at the original culture volume for 5 minutes, to reverse any thiol oxidation that may have occurred. The cells were harvested at 4000 rpm and washed twice at the original culture volume with 1× phosphate-buffered saline (PBS) to remove residual DTT. […] The cells were washed once more to remove formaldehyde and then analyzed using the Attune NxT flow cytometer equipped with a 488 nm laser and 525/40 nm bandpass filter. The data were analyzed using the Attune NXT Software.
# Flow cytometry analysis of S. aureus treated with cystine enantiomers. […] The cells were washed once more to remove formaldehyde and then analyzed using the Attune NxT flow cytometer as described above.
# The first goal was to identify which cysteine-based label would result in the highest level of thiol handles on the surface of S. aureus. […] Incubation of cells with D-cystine (2) led to a ˜12-fold increase in cellular fluorescence relative to DMSO treated cells. […]
# [7] = tested on: WT S. aureus (ATCC 25923); format: cell-based, Staphylococcus aureus
# Procedure: LB media containing 1 mM of D-LysAz were prepared. S. aureus ATCC 25923 cells supplemented with 0.1 μg/mL tunicamycin, S. aureus ΔtarO cells supplemented with 150 μg/mL spectinomycin, or S. aureus ATCC 25923 cells from overnight cultures were added to the medium (1:100 dilution) and allowed to grow overnight at 37° C. with shaking at 250 rpm. The cells were harvested at 4000 rpm and washed three times at the original culture volume with 1×PBS. Each strain was then treated with the DBCO-pegn-Fl library. All library members were used at a 25 μM concentration for 30 minutes at 37° C. and protected from light. The samples were subsequently harvested at 4000 rpm and washed three times with 1×PBS followed by fixation with 2% formaldehyde in 1×PBS for 30 minutes. The cells were washed once more to remove formaldehyde and then analyzed using the Attune NxT flow cytometer as described above.
# LB media containing either 1 mM of D-LysAz, N^ε-azido-L-lysine hydrochloride (L-LysAz), or DMSO were prepared. S. aureus ATCC 25923 cells were added to the LB medium (1:100) and allowed to grow overnight at 37° C. with shaking at 250 rpm. The cells were harvested at 4000 rpm and washed three times at the original culture volume with 1×PBS. […] The cells were washed once more to remove formaldehyde and then analyzed using the Attune NxT flow cytometer as described above.
compound,measurement,setting,value
C[C@@H](O)[C@H]1C(=O)N2C(C(=O)O)=C(S[C@@H]3CN[C@H](C(=O)N(C)C)C3)[C@H](C)[C@H]12 [meropenem],cellular fluorescence with increasing levels of meropenem in the presence of TetD,[1],concentration dependent decrease in cellular fluorescence
tunicamycin,effect of tunicamycin treatment on cellular fluorescence,[2],higher overall levels of cellular fluorescence in a concentration dependent manner
same,effect of tunicamycin on ΔtarO cells,[3],minimal additive effect
"[N-]=[N+]=Nc1ccc2c(c1)C1(OC2=O)c2ccc(N)cc2Oc2cc(N)ccc21 [rhodamine 110, 6-azido-rhodamine 110]",cellular fluorescence with azide-modified fluorophore in cells pre-labeled with TetD,[4],"higher than Fl-az, albeit with a lower fold increase over unlabeled cells"
"O=C1OC2(c3ccc(O)cc3Oc3cc(O)ccc32)c2ccc(NC(=S)NCCC(=O)N3Cc4ccccc4C#Cc4ccccc43)cc21 [DBCO-Fl, fluorescein-DBCO]",permeation of probe on deletion of clpX alone,[5],did not lead to an increase
N[C@@H](CSSC[C@H](N)C(=O)O)C(=O)O [L-cystine],cellular fluorescence compared to DMSO treated cells,[6]; 1 mM overnight,minimal increase
"[N-]=[N+]=Nc1ccc2c(c1)C1(OC2=O)c2ccc(O)cc2Oc2cc(O)ccc21 [Fl-az, 6-azido-fluorescein]",cellular fluorescence with azide-modified fluorophore in cells pre-labeled with TetD,[4],concentration-dependent and time-dependent increase in cellular fluorescence
N[C@H](CSSC[C@@H](N)C(=O)O)C(=O)O [D-cystine],increase in cellular fluorescence relative to DMSO treated cells,[6]; 1 mM PG analog overnight,~12 fold
N[C@H](CNC(=O)CCC(=O)N1Cc2ccccc2C#Cc2ccccc21)C(=O)O [D-DapD],PG labeling levels (fluorescence) above vehicle treated cells,"[4]; Msm, metabolic label then Fl-az",~40 fold
O=C(CCC(=O)N1Cc2ccccc2C#Cc2ccccc21)NCCOCCOCCOCCOCCOCCOCCOCCOCCOCCNC(=S)Nc1ccc(-c2c3ccc(=O)cc-3oc3cc(O)ccc23)c(C(=O)O)c1 [DBCO-peg9-Fl],increase in cellular fluorescence on co-incubation of cells with tunicamycin,[7],~17 fold
"Cl.[N-]=[N+]=NNCCCC[C@H](N)C(=O)O [L-LysAz, N^ε-azido-L-lysine hydrochloride]",cellular fluorescence after DBCO-Fl,[7],background fluorescence levels
